Measured values reported in PMC9394307, “Discovery of Putative Dual Inhibitor of Tubulin and EGFR by Phenotypic Approach on LASSBio-1586 Homologs” (Pharmaceuticals, 2022).
Several values for one entry are separate records, joined by “and”; a condition that tells them apart may be missing. Equal entries are not always repeated. Where two headings read alike, the source gives them in different places.

What was measured:
[1] = system: HL-60; experiment: MTT cell viability assay, HL-60; type: cell-based, human; settings: MTT, value (95% CI), read-out: CC50 (µM) (CI) HL-60
Experimental: (§1) The cytotoxic activity of compounds 3–13 was determined based on an MTT assay against different human tumor cell lines, using LASSBio-1586 (2), LASSBio-1735 (3), CA-4 (1) and pelitinib as standards (Table 2). To determine the cytotoxic selectivity index, compounds were also evaluated toward human lymphocytes (Table 3).
(§2) The target compounds were tested (0.0001–100 µM) for cytotoxic activity against selected human cancer cell lines, such as HL-60 (acute promyelocytic leukemia), MCF-7 (mammary adenocarcinoma), PC-3 (prostate adenocarcinoma), H1975 (non-small cell lung cancer—EGFR^L858R+T790M), PC-9 (non-small cell lung cancer—EGFR^L858R) H292 (mucoepidermoid pulmonary carcinoma—EGFR wild type), LoVo (colorectal adenocarcinoma—EGFRwild type) and GM16000 (lymphocyte). All the human cancer cell lines were purchased from Cell Bank of Rio de Janeiro—BCRJ. They were cultured in RPMI 1640 medium with 10% (v/v) FBS, 2 mM glutamine, at 37 °C in a humidified incubator containing 5% CO2.
(§3) The cytotoxicity of the compounds was evaluated by the MTT assay. […] For lymphocytic lines, a density of 0.3 × 10^6 cells/mL was used. Afterwards they were treated with varying concentrations of the target compounds 2–12 (0.0001–100 µM), CA-4 (1) and pelitinib at 37 °C, in triplicate. The medium was incubated with 20 μL of 5 mg/mL MTT solution for 3 h in a humidified incubator containing 5% CO2 [11].
(§4) The purple-colored formazan crystals formed in the wells were dissolved in DMSO and their absorbance was measured at 595 nm with a microplate reader (SpectraMax M5, Molecular Devices).

[2] = system: H1975; experiment: MTT cell viability assay, H1975; type: cell-based, human; settings: Homo sapiens, MTT, value (95% CI), read-out: CC50 (µM) (CI) H1975
Experimental: as §1, §2, §3, §4

[3] = system: H292; experiment: MTT cell viability assay, H292; type: cell-based, human; settings: Homo sapiens, MTT, value (95% CI), read-out: CC50 (µM) (CI) H292
Experimental: as §1, §2, §3, §4

[4] = system: LoVo; experiment: MTT cell viability assay, LoVo; type: cell-based; settings: Homo sapiens, MTT, 72 h, value (95% CI), read-out: CC50 (µM) (CI) LoVo
Experimental: as §1, §2
(§5) The cytotoxicity of the compounds was evaluated by the MTT assay. The cell lines were cultured in 96 well plates for 72 h with a density of 0.1 × 10^5 cells/mL to 0.7 × 10^5 cells/mL to adherent cell lines. For lymphocytic lines, a density of 0.3 × 10^6 cells/mL was used. Afterwards they were treated with varying concentrations of the target compounds 2–12 (0.0001–100 µM), CA-4 (1) and pelitinib at 37 °C, in triplicate. The medium was incubated with 20 μL of 5 mg/mL MTT solution for 3 h in a humidified incubator containing 5% CO2 [11].
as §4

[5] = system: MCF-7; experiment: MTT cell viability assay, MCF-7; type: cell-based, human; settings: MTT, 72 h, value (95% CI), read-out: CC50 (µM) (CI) MCF-7
Experimental: as §1, §2, §5, §4

[6] = system: PC-3; experiment: MTT cell viability assay, PC-3; type: cell-based; settings: Homo sapiens, PC-3; MTT, 72 h; value (95% CI); read-out: CC50 (µM) (CI) PC-3
Experimental: as §1, §2, §5, §4

[7] = system: PC-9; experiment: MTT cell viability assay, PC-9; type: cell-based, human; settings: Homo sapiens, MTT, value (95% CI), read-out: CC50 (µM) (CI) PC-9
Experimental: as §1, §2, §3, §4

[8] = MTT cell viability assay, GM16000 lymphocytes; type: cell-based; settings: GM16000 lymphocyte cells (non-tumor), human lymphocytes, value (95% CI)
Experimental: as §1
To establish the cytotoxic selective index (SI) of LASSBio-1586 homologs, they were studied on human lymphocyte cell lines (GM16000), using the MTT assay. The SI was calculated by the ratio between the CC50 on tumor and non-tumor cell lines. Although there is no consensus, values of SI ≥ 10 is considered satisfactory to assign safety to a new cytotoxic agent. This value means that the compound is more than ten times more cytotoxic to the tumor cell line than to normal cell line.
as §2, §5, §4

[9] = system: H1975 cells; experiment: Immunofluorescence of β-tubulin / microtubules; type: cell-based, human; settings: H1975, 48 h, CA-4 0.3 µM, vincristine 0.5 µM, taxol 0.1 µM, LASSBio-1586 10 µM, LASSBio-1735 0.5 µM, LASSBio-2070 4.5 µM, LASSBio-2074 20 µM
Experimental: Antitubulin agents have been broadly classified into destabilizing or stabilizing agents, based on their interference with the dynamic balance of polymerization or depolymerization of microtubules. […] CA-4 (1, 0.3 µM), vincristine (0.5 µM) and taxol (0.1 µM) were used as standard controls.
After incubation, cells were rinsed with PBS and fixed with 4% paraformaldehyde in PBS for 10 min at room temperature. They were then permeabilized with 0.5% Triton-X 100 in PBS 3 times for 10 min. The same solution was used for all subsequent washing steps. Cells were incubated with an anti-beta-tubulin antibody for 1 h at 37 °C. After incubation, cells were washed for 30 min and incubated with Alexa Fluor® 488, conjugated secondary antibody for 1 h at 37 °C, and nuclei were labeled with DAPI (0.1 mg/mL in 0.9% NaCl).
Live cultured cells grown in coverslips were mounted in Prolong Gold solution (Molecular Probes, USA) and were imaged on a Leica TCS SPE confocal microscope (Leica Microsystems, Germany) using 63x 1.3 N.A. oil immersion and the images acquired by the LAS X software. Cell morphology, focusing on the microtubules was analyzed, qualitatively, using the public domain NIH ImageJ Program (developed at the National Institutes of the USA Health and available on the internet at http://imagej.nih.gov/ij/ (accessed on 1 September 2021).

[10] = system: LoVo; experiment: MTT cell viability assay, LoVo; type: cell-based; settings: Homo sapiens, 48 h, value (95% CI)
[11] = MTT cell viability assay, GM16000 lymphocytes; type: cell-based; settings: GM16000 lymphocyte cells (non-tumor), human lymphocytes, value (95% CI); remark: listed apart in the source
[12] = Homo sapiens, HL-60, 48 h, 48 h
[13] = Homo sapiens, HL-60, 72 h, 72 h

Compound | CC50 [1, 12] [µM] | CC50 [1, 13] [µM] | CC50 ([2]; NCI-H1975, 48 h, 48 h) [µM] | CC50 ([2]; NCI-H1975, 72 h, 72 h) [µM] | CC50 ([3]; NCI-H292, 48 h, 48 h) [µM] | CC50 ([3]; NCI-H292, 72 h, 72 h) [µM] | CC50 [4] [µM] | CC50 ([5]; Homo sapiens, MCF7, 72 h) [µM] | CC50 [6] [µM] | CC50 ([7]; PC-9, 48 h, 48 h) [µM] | CC50 ([7]; PC-9, 72 h, 72 h) [µM] | CC50 at 72 h [8] [µM] | cell morphology after treatment [9] | effect on microtubules (stabilizing / destabilizing profile) [9] | CC50 [10] [µM] | CC50 at 48 h [11] [µM] | melting point | also measured
COc1cc(C(=O)N/N=C/c2ccccc2)cc(OC)c1OC [LASSBio-1586 (2), (E)-N’-benzylidene-3,4,5-trimetoxybenzohydrazide] | 3.59 | 2.08 | 2.02 | 1.57 | 2.19 | 1.4 | 0.039 | 7.53 | 1.62 | 0.94 | 0.587 | 1.51 | more spread-out morphology | cell morphology similar to microtubule-stabilizing drugs | 1.72 | 0.763 |  | CC50 ([1]; 72 h): 2.13 µM; effect on microtubules (stabilizing / destabilizing profile) ([9]; listed as 2 (LASSBio-1586)): microtubule destabilizing behavior
COc1cc(C(=O)N(C)/N=C/c2ccccc2)cc(OC)c1OC [LASSBio-1735 (3), (E)-N’-benzylidene-3,4,5-trimethoxy-N-methylbenzohydrazide] | 8.77 | 0.039 | 0.096 | 0.079 | 0.152 | 0.25 | 0.149 | 0.28 | 0.201 | 1.34 | 0.09 | 0.131 | more spread-out morphology | cell morphology similar to microtubule-stabilizing drugs | 0.479 | 0.059 | 110 °C and 110.56 °C | CC50 [5]: 0.276 µM; effect on microtubules (stabilizing / destabilizing profile) ([9]; listed as 3 (LASSBio-1735)): microtubule destabilizing behavior
COc1cc(C(=O)N(Cc2ccccc2)/N=C/c2ccccc2)cc(OC)c1OC [LASSBio-2070 (10), (E)-N-benzyl-N’-benzylidene-3,4,5-trimethoxybenzohydrazide] | 6.29 | 0.172 | 0.903 | 2.79 | 0.147 | 0.883 | 0.208 | 1.7 | 0.361 | 0.244 | 0.337 | 1.05 | rounded shape | typical response of microtubule destabilizing agents | 2.12 | 0.935 | 130 to 131 °C and 130.12 °C | 
CCOC(=O)CN(/N=C/c1ccccc1)C(=O)c1cc(OC)c(OC)c(OC)c1 [LASSBio-2074 (11), Ethyl (E)-N-(benzylideneamino)-N-(3,4,5-trimethoxybenzoyl)glycinate] | 5.69 | 0.126 | 4.83 | 1.2 | 0.593 | 0.75 | 0.106 | 0.869 | 1.36 | 1.41 | 0.202 | 4.19 | more spread-out morphology | cell morphology similar to microtubule-stabilizing drugs | 2.64 | 3.91 | 91 to 92 °C and 91.67 °C | 
